Results as given in patent publication US6723897B2, “Methods for controlling gibberellin levels” (Monsanto Technology, LLC, priority 1998, dated 2004).

Key:
[1] = system: wild-type soybean line A4922; assay: Field trial of seed coating application rates, wild-type soybean
Method: GA3, GA3-3-acetate, GA5, GA9, and GA12 are evaluated in further field trials. […] The objectives of these tests are: 1) to determine if seed coatings, as compared to imbibition, of GA compounds facilitate rescue of constitutively GA-deficient transgenic dwarf soybeans (transgenic lines 719−2 plus 719+17) without causing elongation of wild-type soybeans (line A4922), and 2) to determine the seed treatment rate ranges for each of the selected GA compounds that would provide rescue of constitutively GA-deficient transgenic dwarf soybeans (transgenic lines 719−2 plus 719+17) without causing elongation of wild-type soybeans (line A4922).
Seeds are treated with GA3, GA5, GA9, GA12, and GA3-3-acetate at rates of 0, 0.1, 1, 10, and 100 μg/seed. These GA compounds are applied to the seeds using a Hege 11 seed treater (Hans-Ulrich Hege GmbH & Co., Waldenburg, Germany); 100% acetone is used as the carrier solvent. The amount of liquid introduced into the seed treater is six fluid ounces/100 lbs seed rate. In addition, GA12 is tested at 50 μg/seed. The untreated control (UTC) consisted of dry, untreated seeds. Seeds of constitutively GA-deficient transgenic dwarf soybean line 719 and wild-type A4922 are sown in both light and heavy soil. The planting depth is 0.5 to 1 inch (1.27 to 2.54 cm); watering is via drip irrigation. The experiment is carried out in three repetitions, using 25 seeds/plot (one five foot (152.4 cm) long row) for line 719, and 75 seeds/plot (two eight foot (243.8 cm) rows) for line A4922. Observations included total emergence, number of dwarfs not rescued, uniformity in plant height, average plant height, visual notes, and digital photos.
In all the experiments reported in Tables 17-24, treatments are replicated three times in a randomized block design. Data are analyzed using LSD (least significant difference) 0.05 probability using the PRM 5.0 Statistical Analysis Program (SAS Institute, North Carolina).

[2] = system: non-transgenic soybean line A4922; assay: Field trial of seed coatings under soil compaction / different soils, wild-type soybean; assay type: in vivo, Glycine max; conditions: for Count (emergence) / Height (total plant height): A4922
Method: The second trial (data reported in Tables 22-24) tested the precursors under conditions of soil compaction.
As noted above, the second trial tested the noted precursors under conditions of soil compaction. These experiments are performed in the same manner as in the first trial, except that the soil is compacted with an all-terrain vehicle.
“Height” equals total plant height in cm.

[3] = system: GA-deficient transgenic soybean line 719 (R5); assay: Hilum treatment of soybean seeds, seedling growth and development, GA-deficient soybean; assay type: in vivo, Glycine max; parameters: key to Emergence timing / Hypocotyl length (6 DAP) / 1st internode length (12 DAP) / 3rd internode length (20 DAP) / 2nd internode length (12 DAP): pos: emergence faster/stem segment longer than controls; 0: emergence timing/stem segment length similar to controls; neg: emergence slower/stem segment shorter than controls; conditions: L719, hilum treatment; for 1st internode length (12 DAP) / Emergence timing / Hypocotyl length (6 DAP): single rate per compound 8.3-16.5 μg/seed
Method: In the previous experiments, the effect of various GA compounds on transgenic, GA-deficient and wild-type soybean is evaluated by treating seeds with these compounds via imbibition. Several of these compounds are not completely soluble in water, which limited the interpretation of their utility in rescuing GA-deficient dwarf plants. The purpose of this experiment is to reevaluate selected, previously tested compounds, and additional compounds, by introducing them to the seed via the hilum. As shown by the results presented below, direct application of small quantities of GA compounds dissolved in an organic solvent to the hilum is an effective method of treating soybean seeds. As in the previously described experiments, comparison is made between activity on GA-deficient soybean seedlings and normal (wild-type) seedlings. […] soybean seeds are supplied by Asgrow Seed Company (Des Moines, Iowa). Seed of GA-deficient transgenic soybean line 719 is created by transformation of […] soybean with pMON29801 (FMV/antisense CPScc). Fifth generation seed (R5) is used for these experiments. […] When multiple droplets are applied, each 1 μl droplet is allowed to dry before subsequent droplets are added. Ethanol minus compound is used a treatment control. […] (29° C.) and 75° F. (24° C.), respectively. Emergence timing is measured by counting the number of emerged seedlings at different times after planting. Emergence is defined as the presence of cotyledons raised to soil level or above. […] To assess the ability of a seed treatment to deliver biological activity beyond the first internode, measurements are taken on selected treatments after prolonged growth and development.

[4] = Heavy soil - loose, target rate 2.0 μg/seed, Table 22
[5] = Heavy soil - loose, target rate 8.0 μg/seed, Table 22
[6] = Light soil - Compacted, target rate 2.0 μg/seed, Table 22
[7] = Light soil - Compacted, target rate 8.0 μg/seed, Table 22
[8] = Light soil - Loose, target rate 2.0 μg/seed, Table 24
[9] = Light soil - Loose, target rate 8.0 μg/seed, Table 24
[10] = Light soil - Loose, target rate 16.0 μg/seed, Table 24
[11] = Light soil - compacted, target rate 2.0 μg/seed, Table 24
[12] = Light soil - compacted, target rate 8.0 μg/seed, Table 24
[13] = Light soil - compacted, target rate 16.0 μg/seed, Table 24
[14] = single rate per compound 9.7-16.5 μg/seed
[15] = Heavy soil - Loose, target rate 0.5 μg/seed, Table 23
[16] = Heavy soil - Loose, target rate 2.0 μg/seed, Table 23
[17] = Heavy soil - Loose, target rate 4.0 μg/seed, Table 23
[18] = Heavy soil - compacted, target rate 0.5 μg/seed, Table 23
[19] = Heavy soil - compacted, target rate 2.0 μg/seed, Table 23
[20] = Heavy soil - loose, target rate 0.5 μg/seed, Table 22
[21] = Light soil - Compacted, target rate 0.5 μg/seed, Table 22
[22] = Light soil - Loose, target rate 0.5 μg/seed, Table 24
[23] = Light soil - Loose, target rate 4.0 μg/seed, Table 24
[24] = Light soil - compacted, target rate 0.5 μg/seed, Table 24
[25] = Light soil - compacted, target rate 4.0 μg/seed, Table 24

C=C1C[C@]23C[C@H]1CC[C@H]2[C@@]12CCC[C@@](C)(C(=O)O1)[C@H]2[C@@H]3C(=O)O [GA9]
A4922 Height, cm, Heavy soil ([1]; 0.1 μg compound per seed): 5.7 efg cm
A4922 Height, cm, Light soil ([1]; 0.1 μg compound per seed): 5.7 f-i cm
No. A4922 Emerged, Heavy soil ([1]; 0.1 μg compound per seed): 41.0 a-d
No. A4922 Emerged, Light soil ([1]; 0.1 μg compound per seed): 48.3 b-e
A4922 Height, cm, Heavy soil ([1]; 1 μg compound per seed): 6.3 efg cm
A4922 Height, cm, Light soil ([1]; 1 μg compound per seed): 6.3 fgh cm
No. A4922 Emerged, Heavy soil ([1]; 1 μg compound per seed): 43.0 a-d
No. A4922 Emerged, Light soil ([1]; 1 μg compound per seed): 46.7 c-g
A4922 Height, cm, Heavy soil ([1]; 10 μg compound per seed): 6.7 efg cm
A4922 Height, cm, Light soil ([1]; 10 μg compound per seed): 7.3 fg·cm
No. A4922 Emerged, Heavy soil ([1]; 10 μg compound per seed): 26.3 g·days
No. A4922 Emerged, Light soil ([1]; 10 μg compound per seed): 46.0 c-h
A4922 Height, cm, Heavy soil ([1]; 100 μg compound per seed): 10.3 cm·days
No. A4922 Emerged, Heavy soil ([1]; 100 μg compound per seed): 28.3 c-g
No. A4922 Emerged, Light soil ([1]; 100 μg compound per seed): 40.0 f-i
Count (emergence) [2, 4]: 33 ab
Height (total plant height) [2, 4]: 5.3 g·cm·days
Count (emergence) [2, 5]: 29 a-d
Height (total plant height) [2, 5]: 6.3 cde cm
Count (emergence) [2, 6]: 38 abc
Height (total plant height) [2, 6]: 5.7 def cm
Count (emergence) [2, 7]: 22 de
Height (total plant height) [2, 7]: 6.0 de cm
Count (emergence) [2, 8]: 41.3 abc
Height (total plant height) [2, 8]: 5.0 gh cm
Count (emergence) [2, 9]: 39.3 bc
Height (total plant height) [2, 9]: 7.0 ef cm
Count (emergence) [2, 10]: 39.0 bc
Height (total plant height) [2, 10]: 8.0 de cm
Count (emergence) [2, 11]: 38.0 abc
Height (total plant height) [2, 11]: 5.7 def cm
Count (emergence) [2, 12]: 21.7 de
Height (total plant height) [2, 12]: 6.0 de cm
Count (emergence) [2, 13]: 20.0 de
Height (total plant height) [2, 13]: 8.3 c cm
emergence at approximately equivalent biological response (height) ([2]; compacted soil, FIG. 40): 93%
plant height dose/response in wild-type line A4922 (FIG. 40) ([2]; ten days after planting, compacted soil): less active than GA3, GA3-3-acetate, and GA5
Lowest rate where biological activity is observed, 1st internode length (10 DAP) ([3]; rate response): 10 μg/seed
Lowest rate where biological activity is observed, emergence timing ([3]; rate response): 0.1 μg/seed
Lowest rate where biological activity is observed, hypocotyl length (5 DAP) ([3]; rate response): 0.1 μg/seed
1st internode length (12 DAP) [3]: pos
Emergence timing [3]: pos
Hypocotyl length (6 DAP) [3]: pos
2nd internode length (12 DAP) [3, 14]: 0
3rd internode length (20 DAP) [3, 14]: 0

C=C1C[C@@]23CC[C@H]4[C@@](C)(CCC[C@@]4(C)C(=O)O)[C@@H]2CC[C@@H]1C3 [kaurenoic acid]
1st internode length (12 DAP) [3]: 0
Emergence timing [3]: pos
Hypocotyl length (6 DAP) [3]: 0

C=C1C[C@]23C[C@@]1(O)CC[C@H]2[C@@]12C=C[C@H](OC(C)=O)[C@@](C)(C(=O)O1)[C@H]2[C@@H]3C(=O)O [GA3-3-acetate]
Count (emergence) [2, 15]: 29.0 a-d
Height (total plant height) [2, 15]: 5.3 g·cm·days
Count (emergence) [2, 16]: 15.3 f
Height (total plant height) [2, 16]: 6.0 c-f cm
Count (emergence) [2, 17]: 7
Height (total plant height) [2, 17]: 8.0 ab cm
Count (emergence) [2, 18]: 4.0 de
Height (total plant height) [2, 18]: 5.3 b-e cm
Count (emergence) [2, 19]: 6.0 cde
Height (total plant height) [2, 19]: 5.7 bcd cm
Count (emergence) ([2]; Heavy soil - compacted, target rate 4.0 μg/seed, Table 23): 0 e
Count (emergence) [2, 20]: 29 a-d
Height (total plant height) [2, 20]: 5.3 g·cm·days
Count (emergence) [2, 4]: 15 f
Height (total plant height) [2, 4]: 6.0 c-f cm
Count (emergence) [2, 21]: 28 bcd
Height (total plant height) [2, 21]: 6.3 cm·days
Count (emergence) [2, 6]: 18 def
Height (total plant height) [2, 6]: 8.7 c cm
Count (emergence) [2, 22]: 44.3 abc
Height (total plant height) [2, 22]: 6.3 f cm
Count (emergence) [2, 8]: 42.0 abc
Height (total plant height) [2, 8]: 9.7 bc cm
Count (emergence) [2, 23]: 42.3 abc
Height (total plant height) [2, 23]: 10.3 b cm
Count (emergence) [2, 24]: 27.7 cd
Height (total plant height) [2, 24]: 6.3 cm·days
Count (emergence) [2, 11]: 18.0 def
Height (total plant height) [2, 11]: 8.7 c cm
Count (emergence) [2, 25]: 22.7 dc
Height (total plant height) [2, 25]: 11.0 ab cm
plant height dose/response in wild-type line A4922 (FIG. 40) ([2]; in vivo): dose/response curves similar to that of GA3
1st internode length (12 DAP) [3]: pos
Emergence timing [3]: pos
Hypocotyl length (6 DAP) [3]: pos
